Tested on: SMN2-luciferase reporter
Test: SMN2-luciferase reporter assay (clonal HEK-293 SMN2-luc cells)
Type: cell-based, human
Parameters: % activation: concentration or dose not given beside the values
Conditions: for Active / % activation: reporter assay; for Active / EC50 / Emax: Table 6; for EC50 / Emax: Homo sapiens, HEK293, reporter assay; for EC50: read-out: Ec50; for Emax: read-out: Max % Activity; for % activation: Table 5
Description: The reporter cell lines were plated at 50,000 cells per well in 96-well plates and incubated overnight. Compounds were added to each well and incubated at 37° C. overnight. The final DMSO concentration was 0.1%. Luciferase activity was assayed using either STEADYGLO (PROMEGA E2510) or DUALGLO (PROMEGA E2920) luciferase using the WALLAC ENVISION multilabel reader. For detailed assay conditions see Table 2A. All data points were transformed from CPS to percent increase over basal expression in the treated control wells (DMSO or H2O as appropriate).
Plates were sealed with porous paper tape and incubated for 24 hours. […] For comparison, data points were transformed from CPS to percent activation over basal expression in the DMSO treated control wells.
For comparison, all data points are expressed as percent increase over basal luciferase expression in the control cells.

SMILES | Active | EC50 | Emax | % activation
O=C(Nc1nnc(-c2ccccc2)s1)c1ccc(F)c(Cl)c1 [LDN-211982] | No | – | – | –
CC1CC(C(=O)Nc2cnccn2)=NO1 (stereo not shown) [CAL-2] | No | – | – | –
CC(C)(C)c1cc(NC(=O)c2ccc3ccccc3c2)no1 [LDN-211854] | Yes | 0.5 µM | 200% | –
COc1cc2c(c(OC)c1OC)C(c1cc(C=N)ccc1F)CC(=O)N2 (stereo not shown) [LDN-212361] | No | – | – | –
C=C1CC(c2cccc3ccccc23)c2c(cc(OC)c(OC)c2OC)N1 (stereo not shown) [LDN-212350] | No/Weak | – | – | –
Cc1cc(NC(=O)C2=NOC(C)C2)no1 (stereo not shown) [CAL-3] | No | – | – | –
CC(C)(C)c1cc(NC(=O)c2cnc3ccccc3c2)no1 [LDN-211906] | Yes | 0.8 µM | 250% | –
O=C(Nc1ccc(Cl)cc1)C1=NOC(c2ccccc2)C1 (stereo not shown) [CAL-7] | Yes | 10 µM | 134% | –
O=C(Nc1nc(-c2ccccc2)cs1)c1ccc(F)c(Cl)c1 [LDN-211983] | No | – | – | –
COc1ccc(-c2cn3cccc(C)c3n2)cc1Br [Compound 32531] | – | – | – | 108%
CC(C)(C)c1cc(NS(=O)(=O)c2ccc3ccccc3c2)no1 [LDN-211859] | No | – | – | –
CCN1C(=O)c2cccc3c(S(=O)(=O)NC4CCCC4)ccc1c23 [Compound 109657] | – | – | – | 152%
COc1cc2c(c(OC)c1OC)C(c1cccc(Cl)c1Cl)CC(=O)N2 (stereo not shown) [CAL-56] | No | – | – | –
CCOc1ccc(Br)cc1C1CC(=O)Nc2cc(OC)c(OC)c(OC)c21 (stereo not shown) [CAL-50] | No | – | – | –
COc1ccc(NC(=O)C2=NOC(C)C2)cc1 (stereo not shown) [CAL-4] | Yes | 8 µM | 211% | –
Cc1csc(NC(=O)c2ccc(F)c(Cl)c2)n1 [LDN-211984] | Yes | 2.1 µM | 200% | –
CC(C)(C)c1cc(C(=O)Nc2ccc(F)c(Cl)c2)no1 [LDN-211858] | No | – | – | –
CC(C)(C)c1cc(NC(=O)c2cc3ccccc3[nH]2)no1 [LDN-211911] | Yes | 0.4 µM | 175% | –
O=C(Nc1nc2c(s1)Cc1ccccc1-2)C1=COCCO1 [Compound 110181] | – | – | – | 120%
COc1cc2c(c(OC)c1OCCN1CCOCC1)C(c1cc(Cl)ccc1F)CC(=O)N2 (stereo not shown) [LDN-213770] | No | – | – | –

SMILES | Active | EC50 | Emax | % activation
COc1cc2c(c(OC)c1OC)C(c1ccnc(Cl)c1)CC(=O)N2 (stereo not shown) [LDN-212393] | No/Weak | – | – | –
O=C(Nc1ccc(F)c(Cl)c1)c1cc(C2CCCC2)on1 [LDN-211828] | Yes | 20 µM | 100% | –
CC1CC(C(=O)Nc2ccc(F)c(Cl)c2)=NO1 (stereo not shown) [CAL-8] | Weak | 10 µM | 120% | –
CC(C)c1nc(C(=O)Nc2ccc(F)c(Cl)c2)co1 [LDN-212015] | Yes | 1.7 µM | 100% | –
O=C(Nc1nc(C2CCC2)cs1)c1ccc(F)c(Cl)c1 [LDN-212013] | Yes | 0.5 µM | 100% | –
CC(C)c1cc(C(=O)Nc2ccc3ccccc3c2)no1 [LDN-211826] | Yes | 1.1 µM | 150% | –
COc1ccc(NC(=O)c2cc(C(C)C)on2)c(OC)c1 [CAL-27] | Yes | 1 µM | 125% | –
COc1ccc(Cl)cc1NC(=O)c1cc(C(C)C)on1 [CAL-29] | No | – | – | –
COc1cc2c(c(OC)c1OC)C(c1coc3ccccc13)CC(=O)N2 (stereo not shown) [LDN-212389] | No/Weak | – | – | –
CN(C(=O)c1cc(C2CC2)on1)c1ccccc1 [CAL-37] | Yes | 30 µM | 143% | –
C=C/C(Cl)=C(\CCl)NC(=O)c1cc(C(C)C)on1 [CAL-30] | No | – | – | –
COc1cc2c(c(OC)c1)C(c1cc3c(cc1Br)OCO3)CC(=O)N2 (stereo not shown) [CAL-52] | No | – | – | –
CC(C)Cc1cc(C(=O)Nc2ccc(F)c(Cl)c2)no1 [LDN-75879] | Yes | 1.5 µM | 180% | –
CCN(CC)CCCNC(=O)c1cc(C2CC2)on1 [CAL-42] | No | – | – | –
COc1cc2c(c(OC)c1)C(c1c(Cl)cccc1Cl)CC(=O)N2 (stereo not shown) [LDN-76515] | No | – | – | –
COc1cc2c(c(OC)c1OC)C(c1ccc3ccccc3c1)CC(=O)N2 (stereo not shown) [LDN-212357] | No | – | – | –
CC1CC(C(=O)NC2CCCc3ccccc32)=NO1 (stereo not shown) [CAL-1] | No | – | – | –
COc1cc(Br)c(C2CC(=O)Nc3cc(OC)c(OC)c(OC)c32)cc1OC (stereo not shown) [CAL-51] | No | – | – | –
CC(C)c1cc(C(=O)Nc2cc(Cl)ccc2Cl)no1 [CAL-28] | Yes | 0.9 µM | 59% | –
Cc1ccc(-c2cc(-c3ccccc3Cl)[nH]n2)c(O)c1 [Compound 72939] | – | – | – | 102%

SMILES | Active | EC50 | Emax | % activation
CC(C)c1cc(C(=O)Nc2ccc(F)c(Cl)c2)n(C)n1 [LDN-211857] | No | – | – | –
CC(C)(C)c1cc(=O)[nH]c(NC(=O)c2ccc(F)c(Cl)c2)n1 [LDN-212026] | No | – | – | –
CC(C)(C)c1nnc(NC(=O)c2ccc(F)c(Cl)c2)s1 [LDN-211981] | Yes | 5.9 µM | 100% | –
COc1cc2c(c(OC)c1OC)C(c1ccc(Cl)cc1Cl)CC(=O)N2 (stereo not shown) [LDN-76074] | No/Weak | – | – | –
CC(C)c1cc(C(=O)Nc2ccccc2C(F)(F)F)no1 [CAL-31] | Yes | 16 µM | 154% | –
COc1cc2c(c(OC)c1OC)C(c1cc(Cl)ccc1F)CC(=O)N2 (stereo not shown) [LDN-213769] | No | – | – | –
O=C(Nc1cc(C2(O)CCC2)ccn1)c1ccc(F)c(Cl)c1 [LDN-212256] | Yes | 0.4 µM | 114% | –
COc1cc2c(c(OC)c1OC)C(c1cccc(C(F)(F)F)c1)CC(=O)N2 (stereo not shown) [CAL-55] | No | – | – | –
O=C(Nc1ccc(F)c(Cl)c1)c1cc(C2CCCCC2)on1 [LDN-211829] | No/Weak | – | – | –
CC1CC(C(=O)Nc2ccc(F)cc2)=NO1 (stereo not shown) [CAL-5] | Yes | 10 µM | 108% | –
CC(C)(C)c1cc(NC(=O)c2ccc(F)c(Cl)c2)on1 [LDN-211861] | Yes | 3.7 µM | 100% | –
COc1cc2c(c(OC)c1OC)C(c1ccccc1F)CC(=O)N2 (stereo not shown) [CAL-22] | No | – | – | –
CC(C)(O)c1sc(NC(=O)C2CCC(F)C(Cl)C2)nc1C(F)(F)F (stereo not shown) [LDN-213766] | No | – | – | –
CC(C)c1cc(C(=O)Nc2cccc(Cl)c2)no1 [CAL-25] | Yes | 0.35 µM | 237% | –
COC1=CC2NC(=O)CC(c3cc(C(N)O)ccc3F)C2C(OC)=C1OC (stereo not shown) [LDN-212358] | No | – | – | –
COc1cc2c(c(OC)c1OC)C(c1cc(Br)ccc1F)CC(=O)N2C (stereo not shown) [LDN-212263] | No | – | – | –
CC(C)(C)c1cc(NC(=O)c2cnc3ccccc3n2)no1 [LDN-211907] | No/Weak | – | – | –
O=C(Nc1ccc2c(c1)OCO2)c1cc(C2CC2)on1 [CAL-33] | Yes | 1.7 µM | 217% | –
COc1cc2c(c(OC)c1OC)C(c1cccnc1)CC(=O)N2 (stereo not shown) [LDN-76158] | No | – | – | –
CC(C)(O)c1cnc(NC(=O)c2ccc(F)c(Cl)c2)s1 [LDN-212255] | Yes | 0.4 µM | 117% | –

— patent US9212209B2, “Screening methods for spinal muscular atrophy” (Indiana University Research and Technology Corporation, priority 2012, dated 2015)
